Measurements published in patent US6355799B1, “Substituted benzene compounds, process for their preparation, and herbicidal and defoliant compositions containing them” (ISK Americas Incorporated, priority 1997, dated 2002).

Assays:
Type in all cases: in vivo
[1] = system: field corn (Zea mays L., var. Dekalb 535, CORN); assay: Pre-emerge test, crop safety; details: crop damage, pre-emerge, phytotoxicity rating 0-100 at 14 days after application
Description: (§1) A standard greenhouse herbicide activity screening system was used to evaluate the herbicidal efficacy and crop safety of these test compounds. Seven broadleaf weed species including redroot pigweed (Amaranthus retroflexus, AMARE, velvetleaf (Abutilon theophrasti, ABUTH), sicklepod (Cassia obtusifolia, CASOB), ivyleaf morningglory (Ipomoea hederacea, IPOHE), lambsquarters (Chenopodium album, CHEAL), common ragweed (Ambrosia artemisizfolia L., AMBEL), and cocklebur (Xanthium strumarium, XANST) were used as test species. Four grass weed species including green foxtail (Setaria viridis, SETVI), barnyardgrass (Echinochloa crus-galli, ECHCG), johnsongrass (Sorghum halepense, SORHA), and large crabgrass (Digitaria sanguinalis, DIGSA) were also used. In addition, three crop species, field corn (Zea mays L., var. Dekalb 535, CORN), soybean (Glycine max L., var. Pella 86, SOY), and is upland rice (Oryza sp., var. Tebonnet, RICE) were included.
(§2) All plants were grown in 10 cm square plastic pots which were filled with a sandy loam soil mix. For pre-emerge tests, seeds were planted one day prior to application of the test compounds. For post-emerge tests, seeds were planted 8-21 days prior to the test to allow emergence and good foliage development prior to application of the test substances. At the time of the post-emerge application, plants of all species were usually at the 2-3 leaf stage of development.
(§3) All test compounds Were dissolved in acetone and applied to the test units in a volume of 187 l /ha. Test materials were applied at rates ranging from 15 g ai/ha to 1000 g ai/ha using a track sprayer equipped with a TJ8001E even flow flat fan spray nozzle. Plants were arranged on a shelf so that the top of the canopy (post-emerge) or top of the soil surface (pre-emerge) was 40-45 cm below the nozzle. Pressurized air was used to force the test solution through the nozzle as it was mechanically advanced (via electrically driven chain drive) over the top of all test plants/pots. This application simulates a typical commercial field herbicide application.
(§4) In the post-emerge test, a commercial non-ionic surfactant was also included (0.25% v/v) to enhance wetting of the leaf surfaces of target plants. Immediately after application, test units of the pre-emerge applications were watered at the soil surface to incorporate the test materials. Subsequently, these test units were bottom-watered. Post-emerge test units were always bottom-watered.
(§5) At 14 days after application of the test materials, phytotoxicity ratings were recorded. A rating scale of 0-100 was used as previously described in Research Methods in Weed Science, 2nd edition, B. Truelove, Ed., Southern Weed Science Society, Auburn University, Auburn, Ala. 1977. Briefly, “0” corresponds to no damage and “100” corresponds to complete death of all plants in the test unit. This scale was used both to determine efficacy against weed species and damage to crop species. Herbicide activity data for various compounds of this invention, which are shown by compound No. in Tables 1-8, are shown in Tables 11 and 12.

[2] = system: upland rice (Oryza sp., var. Tebonnet, RICE); assay: Pre-emerge test, crop safety; details: crop damage, pre-emerge, phytotoxicity rating 0-100 at 14 days after application
Description: as §1, §2, §3, §4, §5

[3] = system: barnyardgrass (Echinochloa crus-galli, ECHCG); assay: Post-emerge test, greenhouse herbicide activity screening; details: post-emerge, phytotoxicity rating 0-100 at 14 days after application
Description: as §1, §2, §3, §4, §5

[4] = system: lambsquarters (Chenopodium album, CHEAL); assay: as above; details: post-emerge, phytotoxicity rating 0-100 at 14 days after application
Description: as §1, §2, §3, §4, §5

[5] = system: sicklepod (Cassia obtusifolia, CASOB); assay: as above; details: post-emerge, phytotoxicity rating 0-100 at 14 days after application
Description: as §1, §2, §3, §4, §5

[6] = system: large crabgrass (Digitaria sanguinalis, DIGSA); assay: as above; details: post-emerge, phytotoxicity rating 0-100 at 14 days after application
Description: as §1, §2, §3, §4, §5

[7] = system: ivyleaf morningglory (Ipomoea hederacea, IPOHE); assay: as above; details: post-emerge, phytotoxicity rating 0-100 at 14 days after application
Description: as §1, §2, §3, §4, §5

[8] = system: green foxtail (Setaria viridis, SETVI); assay: as above; details: post-emerge, phytotoxicity rating 0-100 at 14 days after application
Description: as §1, §2, §3, §4, §5

[9] = system: velvetleaf (Abutilon theophrasti, ABUTH); assay: as above; details: post-emerge, phytotoxicity rating 0-100 at 14 days after application
Description: as §1, §2, §3, §4, §5

[10] = system: redroot pigweed (Amaranthus retroflexus, AMARE); assay: as above; details: post-emerge, phytotoxicity rating 0-100 at 14 days after application
Description: as §1, §2, §3, §4, §5

[11] = system: barnyardgrass (Echinochloa crus-galli, ECHCG); assay: Pre-emerge test, greenhouse herbicide activity screening; details: pre-emerge, phytotoxicity rating 0-100 at 14 days after application
Description: as §1, §2, §3, §4, §5

[12] = system: lambsquarters (Chenopodium album, CHEAL); assay: as above; details: pre-emerge, phytotoxicity rating 0-100 at 14 days after application
Description: as §1, §2, §3, §4, §5

[13] = system: sicklepod (Cassia obtusifolia, CASOB); assay: as above; details: pre-emerge, phytotoxicity rating 0-100 at 14 days after application
Description: as §1, §2, §3, §4, §5

[14] = system: large crabgrass (Digitaria sanguinalis, DIGSA); assay: as above; details: pre-emerge, phytotoxicity rating 0-100 at 14 days after application
Description: as §1, §2, §3, §4, §5

[15] = system: ivyleaf morningglory (Ipomoea hederacea, IPOHE); assay: as above; details: pre-emerge, phytotoxicity rating 0-100 at 14 days after application
Description: as §1, §2, §3, §4, §5

[16] = system: green foxtail (Setaria viridis, SETVI); assay: as above; details: pre-emerge, phytotoxicity rating 0-100 at 14 days after application
Description: as §1, §2, §3, §4, §5

[17] = system: velvetleaf (Abutilon theophrasti, ABUTH); assay: as above; details: pre-emerge, phytotoxicity rating 0-100 at 14 days after application
Description: as §1, §2, §3, §4, §5

[18] = system: field corn (Zea mays L., var. Dekalb 535, CORN); assay: Post-emerge test, crop safety; details: post-emerge, crop damage rating 0-100 at 14 days after application
Description: as §1, §2, §3, §4, §5

[19] = system: upland rice (Oryza sp., var. Tebonnet, RICE); assay: Post-emerge test, crop safety; details: post-emerge, crop damage rating 0-100 at 14 days after application
Description: as §1, §2, §3, §4, §5

[20] = system: redroot pigweed (Amaranthus retroflexus, AMARE); assay: Pre-emerge test, greenhouse herbicide activity screening; details: pre-emerge, phytotoxicity rating 0-100 at 14 days after application
How it was run: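 Herbicidal damage is scored 0 (none) to 100 (complete plant death) two weeks after a simulated field spray. Rates span 15–1000 g ai/ha, delivered in acetone at 187 l/ha. For post-emergence treatments, plants have 2–3 leaves and the spray carries 0.25% v/v non-ionic surfactant.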

## Cc1c(Cl)cc(F)c(-n2c(=O)cc(C(F)(F)F)n(C)c2=O)c1NC(=O)OCc1cccc([N+](=O)[O-])c1 [4-67]
[1]; rate 63 g ai/ha
  Pre-emerge Herbicidal Activity CORN: 5
[1]; rate 250 g ai/ha
  Pre-emerge Herbicidal Activity CORN: 15
[2]; rate 63 g ai/ha
  Pre-emerge Herbicidal Activity RICE: 60
[2]; rate 250 g ai/ha
  Pre-emerge Herbicidal Activity RICE: 40
[3]; 63 g ai/ha
  Post-emerge Herbicidal Activity ECHCG: 40
[3]; 250 g ai/ha
  Post-emerge Herbicidal Activity ECHCG: 70
[4]; 63 g ai/ha
  Post-emerge Herbicidal Activity CHEAL: 100
[4]; 250 g ai/ha
  Post-emerge Herbicidal Activity CHEAL: 100
[5]; 63 g ai/ha
  Post-emerge Herbicidal Activity CASOB: 100
[5]; 250 g ai/ha
  Post-emerge Herbicidal Activity CASOB: 100
[6]; 63 g ai/ha
  Post-emerge Herbicidal Activity DIGSA: 70
[6]; 250 g ai/ha
  Post-emerge Herbicidal Activity DIGSA: 80
[7]; 63 g ai/ha
  Post-emerge Herbicidal Activity IPOHE: 100
[7]; 250 g ai/ha
  Post-emerge Herbicidal Activity IPOHE: 100
[8]; 63 g ai/ha
  Post-emerge Herbicidal Activity SETVI: 90
[8]; 250 g ai/ha
  Post-emerge Herbicidal Activity SETVI: 90
[9]; 63 g ai/ha
  Post-emerge Herbicidal Activity ABUTH: 100
[9]; 250 g ai/ha
  Post-emerge Herbicidal Activity ABUTH: 100
[10]; 63 g ai/ha
  Post-emerge Herbicidal Activity AMARE: 100
[10]; 250 g ai/ha
  Post-emerge Herbicidal Activity AMARE: 100
[11]; rate 63 g ai/ha
  Pre-emerge Herbicidal Activity ECHCG: 40
[11]; rate 250 g ai/ha
  Pre-emerge Herbicidal Activity ECHCG: 80
[12]; rate 63 g ai/ha
  Pre-emerge Herbicidal Activity CHEAL: 100
[12]; rate 250 g ai/ha
  Pre-emerge Herbicidal Activity CHEAL: 100
[13]; rate 63 g ai/ha
  Pre-emerge Herbicidal Activity CASOB: 40
[13]; rate 250 g ai/ha
  Pre-emerge Herbicidal Activity CASOB: 60
[14]; rate 63 g ai/ha
  Pre-emerge Herbicidal Activity DIGSA: 100
[14]; rate 250 g ai/ha
  Pre-emerge Herbicidal Activity DIGSA: 100
[15]; rate 63 g ai/ha
  Pre-emerge Herbicidal Activity IPOHE: 80
[15]; rate 250 g ai/ha
  Pre-emerge Herbicidal Activity IPOHE: 90
[16]; rate 63 g ai/ha
  Pre-emerge Herbicidal Activity SETVI: 90
[16]; rate 250 g ai/ha
  Pre-emerge Herbicidal Activity SETVI: 100
[17]; rate 63 g ai/ha
  Pre-emerge Herbicidal Activity ABUTH: 100
[17]; rate 250 g ai/ha
  Pre-emerge Herbicidal Activity ABUTH: 100
[18]; 63 g ai/ha
  Post-emerge Herbicidal Activity CORN: 55
[18]; 250 g ai/ha
  Post-emerge Herbicidal Activity CORN: 70
[19]; 63 g ai/ha
  Post-emerge Herbicidal Activity RICE: 50
[19]; 250 g ai/ha
  Post-emerge Herbicidal Activity RICE: 70
[20]; rate 63 g ai/ha
  Pre-emerge Herbicidal Activity AMARE: 100
[20]; rate 250 g ai/ha
  Pre-emerge Herbicidal Activity AMARE: 100
